How the values were obtained:
[1] = tested on: TFE3; assay: TFE3 nuclear translocation in HeLa cells; assay type: cell-based, human; conditions: HeLa cells transfected with TFE3-3×Flag
Text: FIG. 23. Pharmacological inhibition of AKT induces nuclear translocation of TFE3 and MITF. HeLa cells were transiently transfected with TFE3-3×Flag (a) and MITF-3×Flag (b) and analyzed by confocal microscopy. Scale bar is 10 μm.

[2] = humans, oral; cited from earlier work
[3] = tested on: Cln3^Δex7-8 mice; assay: Microglial activation, CD68 immunohistochemistry; assay type: in vivo, mouse
Procedure: (§1) Brains were subsequently removed and postfixed overnight. Before sectioning, the brains were cryoprotected in a solution containing 30% sucrose in Tris-buffered saline (TBS: 50 mM Tris, pH 7.6). Consecutive […] floating coronal sections were collected in 96-well plates. Series of sections were then stained with primary antisera against CD68 or GFAP, followed by either rabbit anti-rat (VectorLab) and swine anti-rabbit (DAKO) secondary antibodies, and immunoreactivity detected with Vectastain ABC (avidin-biotin) kit (Vector) and diaminobenzidine as a chromogen.
Thirty non-overlapping images were captured, on three consecutive sections, through each region of interest. All RGB images were captured via a live video camera (JVC, 3CCD, KY-F55B), mounted onto a Zeiss Axioplan microscope using a ×40 objective and saved as JPEGs. All parameters including lamp intensity, video camera set-up and calibration were maintained constant throughout image capturing. Images were subsequently analysed using ImageJ analysis software (NIH), using an appropriate threshold that selected the foreground immunoreactivity above background. This threshold was then applied as a constant to all subsequent images analysed per batch of animals and reagent used to determine the specific area of immunoreactivity for each antigen in each region. This analysis was performed blind to genotype. […]

[4] = tested on: Cln3^Δex7-8 mice; assay: Life span assessment, oral trehalose; assay type: in vivo, mouse
Procedure: Cln3^Δex7-8 mice (stock no. 004685; Cln3^tm1.1Mem/J; CD-1 background)^32 were obtained from the Jackson Laboratory. Control (CD-1) and Cln3^Δex7-8 mice were housed 3-4 per cage in a room with a 12-h light/12-h dark cycle. Food and water were provided ad libitum. All mice used in this study were analyzed at 8 and 12 months of age and were littermates produced by crossing heterozygous Cln3^Δex7-8 mice. Only males were used for this analysis. Investigators were blinded when analyzing the data, and no randomization was necessary. No data were excluded from this study.
Trehalose (Swanson) was dissolved in drinking water to a final concentration of 2% and changed twice a week. Trehalose-containing water was given to Cln3^Δex7-8 and WT mice by spontaneous oral administration starting at 21 days of age and continuing until the day the mice died naturally (life span assessment) or were sacrificed for other studies.

[5] = tested on: TFEB S211; assay: TFEB S211 phosphorylation (Phospho(Ser)-14-3-3 binding motif immunoblot); assay type: cell-based, human; conditions: HeLa cells transfected with TFEB-Flag, trehalose 24 h
Procedure: FIG. 9. […] TFEB-Flag was immunoprecipitated from HeLa cells transfected with TFEB-Flag and treated with trehalose for 24 h or left untreated. Immunoblot analyses were performed using antibody against Phospho(Ser)-14-3-3 binding motif and control antibodies.

[6] = cited from earlier work
[7] = tested on: Cln3^Δex7-8 mice; assay: Storage burden (autofluorescent storage material, confocal thresholding); assay type: in vivo, mouse; conditions: S1BF and VPM/VPL, 7- and 12-month-old Cln3^Δex7-8 mice
Procedure: To analyse the relative level of the autofluorescent storage material present in each brain region, mouse brain sections spanning the S1BF and VPM/VPL were mounted onto gelatin-chrome-coated slides and cover-slipped with Vectashield (Vector Laboratories, Peterborough, UK). Non-overlapping images from each section were captured at ×63 magnification using a Leica SP5 confocal microscope and a 488 nm excitation laser (Leica Microsystem). Thresholding image analysis was performed to determine the storage burden present in each region. During image capture, all laser parameters and calibrations were kept constant. Semiquantitative thresholding image analysis was carried out using ImageJ (NIH).

[8] = tested on: TFEB; assay: TFEB nuclear translocation in WT and Tsc2-/- MEFs; assay type: cell-based, mouse; conditions: Tsc2-/- MEFs (constitutively active mTORC1) and control MEFs
Procedure: (b) Quantification of TFEB subcellular localization (C, cytoplasmic; N, nuclear) after 24 h of trehalose treatment (Tre) or in untreated cells (UT). Scale bars in a, b is 40 μm. (c) Immunoblot analyses show expression levels of substrates downstream of mTORC1. Wild-type (WT) and TSC2 null MEF cells were treated with trehalose (Tre; 100 mM) for 24 h or left untreated. As controls, cells were treated with Torin 1 (300 nM) or rapamycin (300 nM) for 2 h before extracting the lysates. Phospho- and total S6K1 (P-S6K1 and T-S6K1), phospho- and total S6 (P-S6 and T-S6) and phospho- and total 4E-BP1 (P-4E-BP1 and T-4E-BP1) were detected as readouts of mTORC1 activity. […] (f) HeLa cells co-transfected with TFEB-3×FLAG and mTOR or (g) TFEB-3×FLAG and constitutively active mTOR (CA-mTOR, […]) constructs were treated with trehalose (100 mM for 24 h) or left untreated before immunofluorescent labelling of TFEB (red) and mTOR (green) with FLAG and mTOR antibodies, respectively. Scale bar, 10 μm (d-g). Data represent means±s.e.m.
For immunofluorescence assay, cells were grown on coverslips in 24-well plates. After the treatment, cells were washed with PBS and fixed with methanol for 10 min. Cells were then blocked with blocking reagent (0.1% saponin, 10% bovine serum in PBS) for 1 h and incubated with appropriate primary antibody(s) (1:100) for 3 h at room temperature. […]

[9] = tested on: Cln3^Δex7-8 mice; assay: Astrocytosis, GFAP immunohistochemistry; assay type: in vivo, mouse; conditions: for decrease of GFAP immunoreactivity: 12 months of age
Procedure: as §1
Thirty non-overlapping images were captured, on three consecutive sections, through each region of interest. All RGB images were captured via a live video camera (JVC, 3CCD, KY-F55B), mounted onto a Zeiss Axioplan microscope using a ×40 objective and saved as JPEGs. All parameters including lamp intensity, video camera set-up and calibration were maintained constant throughout image capturing. Images were subsequently analysed using ImageJ analysis software (NIH), using an appropriate threshold that selected the foreground immunoreactivity above background. This threshold was then applied as a constant to all subsequent images analysed per batch of animals and reagent used to determine the specific area of immunoreactivity for each antigen in each region. This analysis was performed blind to genotype. Data were plotted graphically as the mean percentage area of immunoreactivity per field±s.e.m. for each region.

Compound | TFE3 nuclear translocation [1] | ingested trehalose absorbed into the blood stream [2] | microglial activation (CD68) ([3]; S1BF region, 7 months of age) | reduction of microglial activation (CD68) ([3]; VPM/VPL region, 12 months of age) [%] | median survival ([4]; Cln3^Δex7-8 mice, 2% trehalose in drinking water from 21 days of age, untreated 454 days) [days] | maximum life span ([4]; Cln3^Δex7-8 mice, oral trehalose, untreated 544 days) [days] | increase of maximum life span ([4]; treated vs untreated Cln3^Δex7-8 mice) [%] | increase of median survival ([4]; treated vs untreated Cln3^Δex7-8 mice, log-rank P=0.00566) [%] | phosphorylation of TFEB S211 [5] | oral amount that may cause diarrhea and bloating ([6]; oral) | safety and toxicity ([6]; orally and intravenously, doses substantially higher than the intended therapeutic dose) | punctate autofluorescent storage material [7] | TFEB nuclear translocation [8] | progressive neuroinflammation (GFAP and CD68 immunoreactivity) ([9]; S1BF and VPM/VPL, 7 and 12 months of age) | decrease of GFAP immunoreactivity ([9]; S1BF region) [%] | decrease of GFAP immunoreactivity ([9]; VPM/VPL region) [%]
Cl.NC1(c2ccc(-c3nc4ccn5c(=O)[nH]nc5c4cc3-c3ccccc3)cc2)CCC1 [MK2206, 8-[4-(1-aminocyclobutyl)phenyl]-9-phenyl-1,2,4-triazolo[3,4-f][1,6]naphthyridin-3(2H)-one] | promoted nuclear translocation of these two factors | – | – | – | – | – | – | – | – | – | – | – | – | – | – | –
OC[C@H]1O[C@H](O[C@H]2O[C@H](CO)[C@@H](O)[C@H](O)[C@H]2O)[C@H](O)[C@@H](O)[C@@H]1O [trehalose, a-D-glucopyranosyl a-D-glucopyranoside] | – | Less than 0.5% | significantly rescued | 48 | 522 | 699 | 28 | 15 | does not modify phosphorylation of TFEB S211 | 40-50 grams per day | found to be safe | significantly reduced | induce TFEB nuclear translocation even with an active mTORC1 | mitigated | 43 | 67

Reference: patent publication US10512656B2, “Compositions and methods for the treatment of lysosomal storage disorders and disorders characterized by lysosomal dysfunction” (Baylor College of Medicine, priority 2016, dated 2019)
